Test results taken from US20060211651A1, “Persulfated oligosaccharide acting on selectins and chemokine” (Taisho Pharmaceutical Co., Ltd., priority 2002, published 2006).

Columns and labels:
[1] = target: T1, stromal cell-derived factor-1β (Homo sapiens, UniProt P48061); test: ELISA, biotinylated versican binding to SDF-1β in presence of glycosaminoglycan; conditions: 100 μg/ml glycosaminoglycan; FIG. 5
T1 construct: purchased Pepro Tech
Experimental: A well of a 96 well flat bottom microtiter plate was coated with BSA (5 μg/ml), anti-versican monoclonal antibody 2B1 (5 μg/ml), CD44-Ig (7 μg/ml), L-selectin-Ig (3 μg/ml), P-selectin-Ig (3 μg/ml) or chemokine (1 μg/ml), and then blocked with a phosphate buffered physiological saline containing 3% by weight of BSA. As the above chemokine, secondary lymphoid tissue chemokine, γ-interferon inducible protein-10, platelet factor 4, stromal cell-derived factor-1β [manufactured by Pepro Tech] and stromal cell-derived factor-1α [manufactured by Pepro Tech] were used.
Thereafter, the plate was washed with the buffer A, and enzyme-linked immunosorbent assay was performed in the same manner as that of the previous report [Kawashima, H. et al., J. Biol. Chem., 275, 35448-35456 (2000)]. Binding was determined by measuring absorbance at 620 nm using alkaline phosphatase-conjugated streptavidin and Blue Phos™ substrate. In FIG. 5, expression of an abscissa axis is the same as that of FIG. 4.

monomeric L-selectin = target: T2, monomeric L-selectin (Homo sapiens, UniProt P14151); test: BIAcore surface plasmon resonance, immobilized glycosaminoglycan vs monomeric L-selectin; assay type: binding; conditions: for koff / kon / Kd: L-selectin, GAG immobilized, 25° C.; for interaction with immobilized glycosaminoglycan (sensorgram): monomeric L-selectin
T2 construct: purchased Genzyme-Techne
T2 sequence (P14151 39-332 limits assumed): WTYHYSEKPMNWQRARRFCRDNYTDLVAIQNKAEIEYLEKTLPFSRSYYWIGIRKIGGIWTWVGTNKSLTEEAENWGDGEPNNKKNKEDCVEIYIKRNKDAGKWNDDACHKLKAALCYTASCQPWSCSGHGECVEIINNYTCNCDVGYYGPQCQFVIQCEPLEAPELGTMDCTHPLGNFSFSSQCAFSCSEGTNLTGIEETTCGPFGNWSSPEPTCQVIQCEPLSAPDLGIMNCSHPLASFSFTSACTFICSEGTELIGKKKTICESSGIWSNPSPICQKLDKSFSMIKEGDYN
Experimental: (§1) Affinity kinetics of the interaction between various CS/DS chains and each of L-selectin, P-selectin, CD44 and chemokine were examined by surface plasmon resonance using BIAcore™ biosensor [manufactured by BIAcore AB].
(§2) All experiments were performed at 25° C. At stages of washing and dissociation, buffer C (20 mM HEPES-NaOH, 0.15M NaCl, 1 mM CaCl2, 1 mM MgCl2, pH6.8) was used as a running buffer.
(§3) First, about 1.8 to 2.0 kiloresonance unit (1 kiloresonance unit=1 ng/mm^2) of streptavidin were covalently immobilized onto B1 sensor chip via a primary amine group using an amine coupling kit [manufactured by Amercham-Bioscience] according to the instruction provided by the manufacturer. The remaining activated groups were blocked with 150 μl of 1M ethanolamine-HCl (pH8.5). Then, each glycosaminoglycan which had been biotinylated at a reducing end was injected to a sensor tip surface by using EZ-link™ biotin-LC-hydrazide [manufactured by Pierce] so as to obtain about 150 resonance unit of an immobilization level, according to the method of Sadir et al. [J. Biol. Chem., 276, 8288-8296 (2001); all teachings of which are hereby incorporated by reference].
(§4) Binding assay was performed by injecting continuously each of various concentrations of secondary lymphoid tissue chemokine, γ-interferon inducible protein-10, stromal cell-derived factor-1β, monomeric L-selectin [manufactured by Genzyme-Techne], monomeric P-selectin [manufactured by Genzyme-Techne] and monomeric CD44, to a glycosaminoglycan-coupled sensor tip at a flow rate of 30 μl/min for 0 to 90 seconds, and then injecting a running buffer thereto. A response in resonance unit was recorded as a function of a time.
(§5) A sensor tip surface was regenerated with 300 μl of 1 M NaCl when chemokine or CD44 was used, or regenerated with 300 μl of 1 M NaCl, and additional 100 μl of 50 mM EDTA (pH8.0), when selectin was used. As a result of regeneration of a sensor tip surface, a remarkable change in a baseline was not observed.
(§6) An affinity kinetic parameter was determined by BIAevaluation 3.0 software [manufactured by Pharmacia Biosensor] using a single site binding model. […] In FIG. 6 and Table 3, SLC denotes secondary lymphoid tissue chemokin, IP-10 denotes γ-interferon inducible protein-10, SDF-1β denotes stromal cell-derived factor-1β, CS E denotes chondroitin sulfate E, and CS A denotes chondroitin sulfate A. In addition, in Table 3, Kd value for the interaction between monomeric CD44 and chondroitin sulfate E is a value calculated from a binding amount at equilibrium, and Kd value of the interaction between CD44 and hyaluronic acid is a value calculated using CD44-Ig.

[2] = target: secondary lymphoid tissue chemokine; test: BIAcore surface plasmon resonance, immobilized glycosaminoglycan vs SLC; assay type: binding; conditions: for Kd / koff / kon: GAG immobilized, 25° C.
Experimental: as §1, §2, §3, §4, §5, §6

L-selectin-Ig = target: T3, L-selectin-Ig (Homo sapiens, UniProt P14151); test: Binding inhibition assay (ELISA), biotinylated versican to L-selectin-Ig, various concentrations; conditions: dose-dependent, FIG. 2 panel A
T3 construct: purchased R & D Systems Inc
T3 sequence (P14151 with tags, fused parts or gaps limits assumed): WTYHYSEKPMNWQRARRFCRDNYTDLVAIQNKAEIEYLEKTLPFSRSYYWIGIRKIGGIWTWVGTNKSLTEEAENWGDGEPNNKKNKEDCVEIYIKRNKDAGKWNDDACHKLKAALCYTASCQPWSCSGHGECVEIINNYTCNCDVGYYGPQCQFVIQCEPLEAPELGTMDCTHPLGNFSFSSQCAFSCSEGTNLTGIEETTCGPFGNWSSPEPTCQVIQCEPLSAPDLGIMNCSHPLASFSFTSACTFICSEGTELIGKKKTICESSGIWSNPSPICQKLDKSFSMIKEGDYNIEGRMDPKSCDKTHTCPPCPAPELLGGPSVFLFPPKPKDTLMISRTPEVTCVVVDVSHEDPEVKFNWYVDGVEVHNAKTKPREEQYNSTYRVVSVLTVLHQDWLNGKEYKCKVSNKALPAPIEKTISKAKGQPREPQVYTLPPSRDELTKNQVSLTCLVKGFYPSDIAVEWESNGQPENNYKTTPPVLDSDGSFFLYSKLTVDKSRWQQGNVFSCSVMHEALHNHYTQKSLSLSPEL
Experimental: Inhibition assay of binding between versican and each of L-selectin, P-selectin and CD44 was performed as follows. First, each well on a 96 well flat bottom microtiter plate (Coster EIA/RIA plate No. 3690) was coated with L-selectin-Ig (3 μg/ml), P-selectin-Ig (4 μg/ml) or CD44-Ig (0.25 μg/ml) by a conventional procedure. […] The plate was incubated at room temperature for 2 hours. Thereafter, the plate was washed with the buffer A, and enzyme-linked immunosorbent assay was performed in the same manner as described in Kawashima, H. et al. [J. Biol. Chem., 275, 35448-35456 (2000)]. Binding was determined by measuring absorbance at 620 nm using alkaline phosphatase-conjugated streptavidin and Blue Phos™ substrate.

[3] = target: γ-interferon inducible protein-10 (Homo sapiens, UniProt P02778); test: BIAcore surface plasmon resonance, immobilized glycosaminoglycan vs IP-10; assay type: binding; conditions: for Kd / koff / kon: GAG immobilized, 25° C.
Chain of γ-interferon inducible protein-10 (P02778 22-98): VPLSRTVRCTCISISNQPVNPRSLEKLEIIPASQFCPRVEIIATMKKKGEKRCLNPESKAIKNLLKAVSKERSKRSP
Experimental: as §1, §2, §3, §4, §5, §6

T1 sequence (P48061 22-93): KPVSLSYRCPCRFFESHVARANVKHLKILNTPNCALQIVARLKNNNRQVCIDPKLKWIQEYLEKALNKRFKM

| inhibition of binding between biotinylated versican and stromal cell-derived factor-1β [1] | koff (monomeric L-selectin) [s⁻¹] | kon (monomeric L-selectin) [M⁻¹ s⁻¹] | Kd [2] [nM] | inhibition of binding between biotinylated versican and L-selectin-Ig (L-selectin-Ig) | Kd [3] [nM] | koff [3] [s⁻¹] | kon [3] [M⁻¹ s⁻¹] | interaction with immobilized glycosaminoglycan (sensorgram) (monomeric L-selectin) | interaction with immobilized glycosaminoglycan (sensorgram) [3] | Kd (monomeric L-selectin) [nM] | Substance | koff [2] [s⁻¹] | kon [2] [M⁻¹ s⁻¹] | interaction with immobilized glycosaminoglycan (sensorgram) [2] |
| --- | --- | --- | --- | --- | --- | --- | --- | --- | --- | --- | --- | --- | --- | --- |
| inhibited | 0.000289 | 13700 | 32.2 | inhibited | 34.9 | 0.000923 | 26400 | – | – | – | dermatan polysulfate [DPS] | 0.000278 | 8640 | – |
| – | – | – | – | not inhibited | – | – | – | did not interact | did not interact | – | chondroitin sulfate A [CS A] | – | – | did not interact |
| inhibited | 0.000439 | 20700 | 85.8 | inhibited | 130 | 0.00211 | 16200 | bound | bound | 21.2 | chondroitin sulfate E [CS E] | 0.00356 | 41500 | bound |
| inhibited | 0.000366 | 7680 | 101 | inhibited | 73.2 | 0.0023 | 31500 | – | – | 47.7 | chondroitin polysulfate [CPS] | 0.00244 | 24200 | – |
